# From a melting point compilation (Tetko et al.; mined from patent text by program, amines drawn as free bases though some values may be those of a salt)
row,SMILES,melting point
1,FC(F)(F)C(/C=C/c1ccc(CNc2ccccn2)c(Cl)c1)c1cc(Cl)c(Cl)c(Cl)c1 (stereo unspecified),140 to 142 °C
2,COc1ccccc1NC(=O)c1ccccc1SSc1ccccc1C(=O)Nc1ccccc1OC,154 to 155 °C
3,C=CC1CC1(C(=O)OC)C(=O)OCc1ccco1 (stereo unspecified),67.5 to 68.5 °C
4,COc1ccc2sc(C3=C(C(C)(C)C)C(C)(C)CO3)cc2c1,58 to 59 °C
5,Cc1c(C(=O)O)cnn1-c1ccc(OC(F)(F)F)cc1,176 to 178 °C
6,O=C(Nc1cscn1)C(F)(F)F,138 to 139 °C
7,NC(Cc1ccc(F)cc1)=NO,104 to 106 °C
8,Cn1nnnc1-c1cccc(CCl)c1,63 to 65 °C
9,O=C(NCCCc1ccncc1)N(CCC12CC3CC(CC(C3)C1)C2)Cc1ccccc1,130 to 135 °C
10,COC(=O)CCC(C)C1CCC2C3CC=C4C(C)(C)C(O)CCC4(C)C3CCC12C (stereo unspecified),136 to 138 °C
11,Cc1ccc(C2(O)c3c(C)c(NC(=O)CC(C)(C)C)c(C)c(C)c3OC2(C)C)cc1 (stereo unspecified),146 to 148 °C
12,CN1CC=C(c2c[nH]c3ccc(NC(N)=S)cc23)CC1,209 to 211 °C
13,Cc1cn(C2CC3OCC3O2)c(=O)[nH]c1=O (stereo unspecified),188 to 190 °C
14,CC1SC(=O)NN=C1c1ccc2c(c1)C(=NNC1CCCCC1)C(=O)N2 (stereo unspecified),217 °C
15,OC1CSC(Oc2cnc(-c3cncnc3)c(F)c2)C(O)C1O (stereo unspecified),192 °C
16,N#Cc1cc(F)c(F)cc1[N+](=O)[O-],75 °C
17,O=C1NS(=O)(=O)CCC1c1ccc([N+](=O)[O-])cc1F (stereo unspecified),218 to 219 °C
18,CCCCCCNC(=O)Nc1ccccc1C(=O)NCCC1CCN(C(c2ccccc2)c2ccccc2)CC1,143 to 144 °C
19,NC(=S)c1cc2c(cn1)[nH]c1ccccc12,274 to 276 °C

row,SMILES,melting point
1,Clc1nc(Cl)c2[nH]nnc2n1,> 260 °C
2,NC(=O)C=Cc1ccc(N)cc1,200 °C
3,Cc1nc2cc3c(cc2s1)C1(CO3)C(=O)Nc2ccccc21 (stereo unspecified),> 250 °C
4,COc1cc2c(cc1F)C(c1ccccc1Cl)=NC1=C(C)NNC1=N2,217 to 218 °C
5,CCCCCCC#Cc1csc(/C=C/C(=O)O)c1,81 °C
6,Cc1sc2c(c1C(=O)c1ccccc1)CCC2C(N)=O (stereo unspecified),165 to 168 °C
7,COC1(c2cc(OCc3ccc4c(ccc(=O)n4C)c3)cc(C(F)(F)F)c2)CCOCC1,103 °C
8,O=C(Nc1nc(-c2ccccc2)nc2[nH]ccc12)[C@@H]1CCCN1,236 to 238 °C
9,COc1nc2c(Cl)cccc2s1,55 to 57 °C
10,CC(C)c1cccc(C(C)C)c1NC(=O)C(Cc1ccc(OCc2ccccc2)cc1)NCc1ccccc1 (stereo unspecified),127 to 129 °C
11,N#CCOc1ccc2cc(Br)ccc2c1Br,130 to 132 °C
12,Cc1oc2ccc(C#N)cc2c1Cl,132 to 134 °C
13,Cc1ccc(NC2CCCc3cc(C)cnc32)cc1 (stereo unspecified),83 to 85 °C
14,COc1ccc2c3c([nH]c2c1)CCC(N(C)C)C3 (stereo unspecified),100 to 105 °C
15,CC1(C)Oc2ccc(C#N)cc2C(CC(=O)N2CCCCC2)C1O (stereo unspecified),160 to 161 °C
16,CC1(C)CN(Cc2cc(F)ccc2F)c2cc(I)cnc2N1,168 to 169 °C
17,N#Cc1ccsc1N=Cc1ccc([N+](=O)[O-])s1,192 to 194 °C
18,CCOC(=O)N1CCN(c2ccc(N3CC(CNC(C)=O)OC3=O)cc2F)CC1 (stereo unspecified),224 to 226 °C
19,CN1CCC(c2ccccc2)(c2ccccc2)CC1,71 to 73 °C

row,SMILES,melting point
1,CCCCNC(=O)OC1c2cccnc2C(=O)N1c1ccc2ccc(Cl)nc2n1 (stereo unspecified),215 °C
2,OCc1cc(I)ccc1F,42 °C
3,CC12C=CC(=O)C(N=C=S)=C1C=CC1C2CCC2(C)C(=O)CCC12 (stereo unspecified),146 to 166 °C
4,CNC(=O)n1nc(Oc2c(Cl)cc(C(F)(F)F)cc2Cl)c(Cl)c1C,125 to 127 °C
5,CN1Cc2c(C(N)=NO)ncn2-c2cccc(Br)c2C1=O,265 to 266 °C
6,CCc1nc2c(N)nc3ccc(-c4cccnc4)cc3c2n1CC(C)C,> 250 °C
7,N#CC=Cc1ccc(Cl)c(Cl)c1,98.2 °C
8,FC1CCC2C3Cc4ccccc4C2(CCN3)C1 (stereo unspecified),93 to 97 °C
9,O=C1Cc2cc3cc(OCCCC(=O)N4CCN(CC5CCCCC5)CC4)ccc3nc2N1,212 °C
10,N#CCC(=O)N(N)c1c(Cl)cc(Cl)cc1Cl,166 to 168 °C
11,Brc1ccc(Nc2ncc3cc4ccccc4n3n2)cc1,237 to 243 °C
12,COc1cc(C(=O)N2CCC(CCN3CCC(C(=O)c4nc5ccccc5n4Cc4ccc(F)cc4)CC3)(c3ccc(Cl)c(Cl)c3)C2)cc(OC)c1OC (stereo unspecified),87 to 90 °C
13,CCCn1c(=O)c2c(nc(/C=C/c3ccc(OC)cc3)n2C)n(CCC)c1=O,160 to 161 °C
14,COc1cc2c(cc1OC)C(COCCN1CCN(c3ccc(F)cc3)CC1)OCCC2 (stereo unspecified),114 °C
15,CC(C)(C)CC(=O)Nc1ccc2ncn3c(=O)c(C(=O)O)cnc3c2c1,304 to 306 °C
16,Nc1cc(C(=O)OCCN2CCCCC2)c2oc(-c3ccccc3)cc2c1,126 to 128 °C
17,O=c1cnc(-c2cc(-c3ccsc3)cc(-c3ccsc3)c2)nn1CC(F)(F)F,189 to 191 °C
18,CCCC12C3=CCC4CC(OC(C)=O)CCC4(C)C3CCC1(C)C(C(C)CCCC(C)C)CC2O (stereo unspecified),104 °C
19,N#Cc1cccc(C2=Nc3ccc(C#CC4=CCCCC4)cc3NC(=O)C2)c1,228 °C

# Continued, values first:
row,melting point,SMILES
1,99 to 101 °C,O=C(O)CCCCc1cc(O)c(O)c(Cl)c1
2,79 to 82 °C,Cc1ccc(C=CC(=O)CCCCCl)cc1
3,244 °C,Cc1nn(CC(O)c2ccc(Cl)cc2)c(=O)n1-c1ccc(N2CCN(c3ncc(O)cn3)CC2)cc1 (stereo unspecified)
4,238 to 241 °C,Cc1c(-c2ccccc2)oc2c(C(=O)NCCCN3CCC(n4c(=O)[nH]c5ccccc54)CC3)cccc2c1=O
5,222 to 225 °C,CCc1nc(N)nc(N)c1-c1ccc(NCCc2ccccc2)c([N+](=O)[O-])c1
6,220 °C,CC(=O)N1C(C(=O)NC2CCC(O)CC2)C(c2cccc(Cl)c2F)C2(C(=O)Nc3cc(Cl)ccc32)C1CC(C)(C)C (stereo unspecified)
7,167 °C,O=C(O)CCCCCn1c2ccccc2c(=O)c2ccccc21
8,93 to 96 °C,CN(C)Cc1ccc(CSCCN=CNS(=O)(=O)c2ccc(Cl)cc2)o1
9,260 to 262 °C,O=c1c(O)c(-c2ncn(Cc3ccc(F)cc3)n2)oc2ccccc12
10,122 to 124 °C,COc1ncc(C(F)(F)F)cc1-c1cccn2nc(Nc3ccc(C4CCN(CC(=O)N(C)C)CC4)cc3)nc12
11,206 to 208 °C,N#Cc1ccc(C2CC(=O)c3ccccc3N2)cc1 (stereo unspecified)
12,74 to 75 °C,C(=C1CCc2cccnc21)c1ccccc1
13,181 °C,COc1ccc(S(=O)(=O)N2C(=O)C(O[Si](C)(C)C)(c3ccccc3OC(F)(F)F)c3cc(Cl)ccc32)c(OC)c1 (stereo unspecified)
14,148 to 149 °C,COCC(=O)NNC(=O)c1cc2cccc(N(C)S(=O)(=O)c3cccs3)c2[nH]1
15,113 to 115 °C,N#Cc1cccc(C=Cc2ccc(Cl)cc2)n1
16,199 to 200 °C,CS(=O)(=O)c1cccc(-n2ccc(=O)c(-c3ccnn3-c3ccccc3)n2)c1
17,92 to 102 °C,Cc1noc(NS(=O)(=O)c2ccccc2-c2ccc(-c3ncco3)cc2CN(C)C(=O)C2CC2)c1C
18,95 to 96 °C,COc1cccc2c1Sc1ccc(Cl)cc1C2
19,281 to 283 °C,O=C(NCc1ccc(Cl)cc1)c1cnc2c(F)cc(-c3cc(Br)cs3)cc2c1O
20,179 to 181 °C,COC(=O)c1ccc(-n2c(C)nc3cc(C#N)ccc32)cc1
21,183 to 184 °C,CC(C)C(=O)NC(=O)c1cccc(-c2noc(-c3ccccc3F)n2)c1
22,185 to 188 °C,CCN(CC)C(C)CN1c2cc(Cl)ccc2S[C@H]2[C@@H](O)[C@H](O)[C@@H](CO)O[C@H]21 (stereo partly specified)

row,melting point,SMILES
1,193 to 196 °C,Cc1c(NC(=O)c2ccc(-c3ccc(F)cc3)cc2)ccc2cc(CN3CCCC3CC(C)C)cnc12 (stereo unspecified)
2,99.5 °C,Cc1cc(-c2noc(C)c2-c2ccc(S(C)(=O)=O)c(F)c2)ccc1-c1cscn1
3,147 to 148 °C,O=C1N[C@H](Cc2ccc(C(F)(F)F)cc2)[C@H](c2ccc(F)cc2F)O1 (racemic)
4,130 °C,CC(C)(O)C(=O)c1ccc(C(O)c2ccc(C(=O)C(C)(C)O)cc2)cc1
5,59 °C,CCOc1ccc(CC(=O)OCc2ccc(C#N)cc2)cc1
6,218 to 219 °C,COc1cc(C(=O)N2Cc3ccc(C(=O)NCc4ccc(Cl)cc4)n3Cc3ccccc32)ccc1-c1ccccc1C
7,111 to 113 °C,CCOc1cc([C@@H](CC(=O)N(C)C)N2Cc3cccc(NCC(C)(C)C)c3C2=O)ccc1OC
8,262 to 264 °C,O=C(O)c1ccccc1-c1ccc([N+](=O)[O-])cn1
9,> 180 °C,O=C(O)Cn1c(=O)c(=O)[nH]c2ccc3ccc(-n4cccc4CNC(=O)c4ccccc4)cc3c21
10,91 to 96 °C,O=S(=O)(Cl)C=Cc1ccc(Cl)c(Cl)c1
11,237 to 239 °C,O=C1NCCN1c1ccc(S(=O)(=O)Nc2ccc(Br)cc2)cc1
12,134 to 136 °C,CC(=O)C=Cc1c(-c2ccccc2)nn2ccccc12
13,112 to 114 °C,CC(=O)NCCOC(c1ccc(F)cc1)c1ccc(F)cc1
14,257 to 259 °C,CC(C)(C)C(NC(=O)c1cccc(Br)c1)Nc1c(Nc2cccnc2Cl)c(=O)c1=O (stereo unspecified)
15,303 to 304 °C,O=C(O)c1ccc(-c2cccc([N+](=O)[O-])c2)[nH]c1=O
16,115 °C,Cc1cccc(I)c1C(=O)Nc1ccccc1[N+](=O)[O-]
17,130 to 131 °C,N=C(Nc1ccc(CCNCc2cccc(F)c2)cc1)c1cccs1
18,202 to 205 °C,O=C(O)C1=Cc2ccc(OCc3ccccc3)cc2CC1
19,98 to 100 °C,O=C(O)C(=O)c1ccc(OCCCCCCCCCCCCOc2ccccc2)cc1
20,204 to 206 °C,COC(=O)c1ccc(-c2ccccc2)cc1S(=O)(=O)NC(=O)Nc1nc(OC)cc(OC)n1
21,98 to 99 °C,COc1cccc(C(CNC(=O)Cc2c(Cl)cncc2Cl)CC(C)C)c1 (stereo unspecified)
22,206 to 207 °C,ON=Cc1ccc2c(c1)Sc1ccccc1C=C2
